Test results reported in ChEMBL document CHEMBL5620411, “Perspectives and new aspects of histone deacetylase inhibitors in the therapy of CNS diseases” (Eur J Med Chem, 2023).
One block for each compound: values may come before it.

What was measured:
U-87 MG [1] = assay: Antiproliferative activity against human U87 cells assessed as reduction in cell viability incubated for 72 hrs by MTT assay
[2] = Half life in mouse; type: ADME, organism-based; details: in vivo
U-251 = assay: Antiproliferative activity against human U-251 cells assessed as reduction in cell viability incubated for 24 hrs by MTT assay; type: functional, cell-based; details: U-251, 24 h
Histone deacetylase 1 [3] = target: T1, Histone deacetylase 1 (Homo sapiens, UniProt Q13547); assay: Inhibition of HDAC1 (unknown origin)
T1 sequence (Q13547 whole entry): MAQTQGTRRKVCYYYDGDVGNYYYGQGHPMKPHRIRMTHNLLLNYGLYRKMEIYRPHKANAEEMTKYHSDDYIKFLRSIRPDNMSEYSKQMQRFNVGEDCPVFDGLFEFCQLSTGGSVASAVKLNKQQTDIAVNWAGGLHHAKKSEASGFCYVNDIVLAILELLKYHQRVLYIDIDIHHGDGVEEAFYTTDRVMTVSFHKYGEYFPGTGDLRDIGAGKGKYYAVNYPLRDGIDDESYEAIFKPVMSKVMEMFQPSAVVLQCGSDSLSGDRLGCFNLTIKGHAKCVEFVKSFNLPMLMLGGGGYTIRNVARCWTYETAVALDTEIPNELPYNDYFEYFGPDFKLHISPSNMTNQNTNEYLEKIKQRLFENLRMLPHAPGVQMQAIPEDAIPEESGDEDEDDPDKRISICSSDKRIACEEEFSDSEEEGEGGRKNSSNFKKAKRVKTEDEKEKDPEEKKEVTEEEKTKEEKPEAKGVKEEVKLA

Histone deacetylase 8 = target: T2, Histone deacetylase 8 (Homo sapiens, UniProt Q9BY41); assay: Inhibition of C-terminal FLAG-tagged full length human recombinant HDAC8 expressed in baculovirus
T2 sequence (Q9BY41 whole entry): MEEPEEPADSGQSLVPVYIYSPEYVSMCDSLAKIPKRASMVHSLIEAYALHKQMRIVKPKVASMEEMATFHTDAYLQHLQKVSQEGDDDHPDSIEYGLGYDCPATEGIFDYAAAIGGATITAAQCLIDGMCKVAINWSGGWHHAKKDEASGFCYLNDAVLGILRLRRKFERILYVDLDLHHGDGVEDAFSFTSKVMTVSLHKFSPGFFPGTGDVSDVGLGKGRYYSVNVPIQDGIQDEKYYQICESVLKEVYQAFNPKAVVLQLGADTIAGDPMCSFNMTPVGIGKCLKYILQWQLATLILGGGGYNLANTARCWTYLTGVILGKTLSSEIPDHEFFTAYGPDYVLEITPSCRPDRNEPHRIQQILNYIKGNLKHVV

[4] = target: Histone deacetylase 4 (Homo sapiens) (UniProt P56524); assay: Inhibition of human recombinant HDAC4 (645 to 1057 residues) expressed in Escherichia coli
Chain of Histone deacetylase 4 (Homo sapiens) (P56524 whole entry, the tested form may be a part): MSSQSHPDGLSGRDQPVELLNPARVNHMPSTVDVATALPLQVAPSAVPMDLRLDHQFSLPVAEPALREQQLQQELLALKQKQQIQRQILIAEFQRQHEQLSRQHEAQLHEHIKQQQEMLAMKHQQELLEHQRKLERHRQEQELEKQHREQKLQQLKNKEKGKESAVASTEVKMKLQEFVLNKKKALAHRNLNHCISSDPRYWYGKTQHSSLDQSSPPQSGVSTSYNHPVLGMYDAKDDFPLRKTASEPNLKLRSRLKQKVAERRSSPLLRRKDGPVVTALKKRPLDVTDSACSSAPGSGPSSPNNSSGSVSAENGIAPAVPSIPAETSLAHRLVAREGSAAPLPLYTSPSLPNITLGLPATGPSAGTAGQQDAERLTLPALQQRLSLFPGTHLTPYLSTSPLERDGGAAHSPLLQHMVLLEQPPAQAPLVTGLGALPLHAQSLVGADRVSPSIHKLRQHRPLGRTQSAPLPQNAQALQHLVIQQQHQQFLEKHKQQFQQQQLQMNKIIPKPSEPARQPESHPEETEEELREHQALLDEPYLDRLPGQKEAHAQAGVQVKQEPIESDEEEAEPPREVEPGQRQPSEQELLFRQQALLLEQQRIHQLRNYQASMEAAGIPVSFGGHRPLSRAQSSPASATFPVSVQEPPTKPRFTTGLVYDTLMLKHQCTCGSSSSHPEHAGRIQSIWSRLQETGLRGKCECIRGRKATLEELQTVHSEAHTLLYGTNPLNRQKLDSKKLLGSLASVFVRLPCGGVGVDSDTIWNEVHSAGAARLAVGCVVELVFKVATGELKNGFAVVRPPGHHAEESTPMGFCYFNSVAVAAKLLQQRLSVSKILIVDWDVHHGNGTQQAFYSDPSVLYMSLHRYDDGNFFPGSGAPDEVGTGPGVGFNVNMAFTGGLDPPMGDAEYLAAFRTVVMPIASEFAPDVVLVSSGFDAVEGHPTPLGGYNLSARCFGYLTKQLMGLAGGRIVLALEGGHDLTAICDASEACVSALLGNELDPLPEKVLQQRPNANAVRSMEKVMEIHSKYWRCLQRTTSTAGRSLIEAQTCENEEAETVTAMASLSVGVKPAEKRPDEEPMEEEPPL

Histone deacetylase 1 [5] = target: T1, Histone deacetylase 1; assay: Inhibition of C-terminal FLAG-tagged human recombinant HDAC1 expressed in baculovirus by HTRF method
[6] = target: T3, Protein deacetylase HDAC6 (Homo sapiens, UniProt Q9UBN7); assay: Inhibition of N-terminal FLAG-tagged full length human recombinant HDAC6 expressed in baculovirus
T3 sequence (Q9UBN7 whole entry): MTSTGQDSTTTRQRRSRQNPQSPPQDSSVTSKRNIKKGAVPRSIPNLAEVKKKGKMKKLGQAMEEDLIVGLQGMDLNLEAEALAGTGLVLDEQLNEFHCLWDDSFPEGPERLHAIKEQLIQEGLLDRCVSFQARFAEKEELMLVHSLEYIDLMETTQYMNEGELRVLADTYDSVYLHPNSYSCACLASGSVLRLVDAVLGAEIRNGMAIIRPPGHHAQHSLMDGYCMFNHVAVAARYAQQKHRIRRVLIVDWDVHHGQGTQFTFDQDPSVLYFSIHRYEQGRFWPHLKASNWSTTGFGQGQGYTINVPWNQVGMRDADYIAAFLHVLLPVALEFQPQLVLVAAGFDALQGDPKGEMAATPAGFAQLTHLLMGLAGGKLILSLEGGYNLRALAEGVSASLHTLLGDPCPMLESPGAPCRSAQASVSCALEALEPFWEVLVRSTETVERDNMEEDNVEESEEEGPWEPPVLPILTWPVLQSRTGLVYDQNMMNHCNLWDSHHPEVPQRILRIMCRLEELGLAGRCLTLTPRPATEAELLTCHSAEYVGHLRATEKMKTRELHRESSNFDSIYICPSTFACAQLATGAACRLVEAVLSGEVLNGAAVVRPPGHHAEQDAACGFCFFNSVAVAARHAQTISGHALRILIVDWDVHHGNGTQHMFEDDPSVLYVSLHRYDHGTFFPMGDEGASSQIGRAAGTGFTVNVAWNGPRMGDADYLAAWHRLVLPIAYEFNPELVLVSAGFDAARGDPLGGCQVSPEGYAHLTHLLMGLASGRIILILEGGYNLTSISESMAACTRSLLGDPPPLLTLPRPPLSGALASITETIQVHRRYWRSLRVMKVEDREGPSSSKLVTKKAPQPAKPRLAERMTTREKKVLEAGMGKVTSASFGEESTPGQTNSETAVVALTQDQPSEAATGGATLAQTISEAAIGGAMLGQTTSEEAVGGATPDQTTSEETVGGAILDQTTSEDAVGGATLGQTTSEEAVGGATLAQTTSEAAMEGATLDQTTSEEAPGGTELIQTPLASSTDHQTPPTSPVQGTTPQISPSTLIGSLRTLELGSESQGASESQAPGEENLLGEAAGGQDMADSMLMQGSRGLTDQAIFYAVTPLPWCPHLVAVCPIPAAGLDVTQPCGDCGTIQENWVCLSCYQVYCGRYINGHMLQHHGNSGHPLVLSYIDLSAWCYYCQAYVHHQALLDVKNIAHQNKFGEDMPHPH

Histone deacetylase 2 = Histone deacetylase 2 (Homo sapiens, UniProt Q92769); assay: Inhibition of C-terminal FLAG-tagged full length human recombinant HDAC2 expressed in Sf9 cells by HTRF method
Chain of Histone deacetylase 2 (Q92769 whole entry): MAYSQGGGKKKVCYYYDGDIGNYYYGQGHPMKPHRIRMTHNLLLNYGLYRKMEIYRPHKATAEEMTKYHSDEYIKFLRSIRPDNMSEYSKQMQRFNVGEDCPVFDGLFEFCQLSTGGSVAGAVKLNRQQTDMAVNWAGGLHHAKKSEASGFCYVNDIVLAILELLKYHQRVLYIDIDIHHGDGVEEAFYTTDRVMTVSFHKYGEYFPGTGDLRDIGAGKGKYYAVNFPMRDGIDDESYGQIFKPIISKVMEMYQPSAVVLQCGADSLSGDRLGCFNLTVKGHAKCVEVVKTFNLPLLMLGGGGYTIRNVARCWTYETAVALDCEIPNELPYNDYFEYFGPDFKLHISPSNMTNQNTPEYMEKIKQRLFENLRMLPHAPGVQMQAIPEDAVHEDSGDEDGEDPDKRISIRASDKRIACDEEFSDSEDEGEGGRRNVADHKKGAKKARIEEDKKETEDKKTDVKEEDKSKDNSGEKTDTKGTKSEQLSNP

[7] = Brain to plasma ratio in rat; type: ADME; details: read-out: BPR
[8] = target: T3, Protein deacetylase HDAC6; assay: Inhibition of human HDAC6
[9] = Half life in mouse plasma at 1 uM by LC-MS/MS analysis; type: ADME, cell-free
U-87 MG [10] = assay: Antiproliferative activity against human U87 cells assessed as reduction in cell growth incubated for 72 hrs by MTT assay; type: functional, cell-based, U-87MG ATCC

IC50 (U-87 MG [1]): 31900 nM
t1/2 [2]: 0.287 h
Structure (SMILES): COc1cc(/C=C/C(=O)CC(=O)/C=C/c2ccc(O)c(OC)c2)ccc1O [CURCUMIN]

IC50 (U-251): 890 nM
IC50 (Histone deacetylase 1 [3]): 120 nM
Structure (SMILES): O=C(CCCCCCC(=O)Nc1cc(C(F)(F)F)ccc1Cl)NO

half-life at 1 µM [9]: 1.53 h
IC50 (U-87 MG [10]): 2780 nM
Structure (SMILES): COc1cc(/C=C/C(=O)CC(=O)/C=C/c2ccc(/C=C/C(=O)NO)cc2)ccc1O

More lines, now with the values behind:

Structure (SMILES): COc1cc(-c2nc(C(=O)NCc3ccc(C(=O)NO)cc3)cc3c2[nH]c2ccccc23)cc(OC)c1OC
IC50 (Histone deacetylase 8): > 559 nM
IC50 [4]: > 559 nM
IC50 (Histone deacetylase 1 [5]): 8.7 nM
IC50 [6]: 3.8 nM
IC50 (Histone deacetylase 2): > 559 nM

Structure (SMILES): O=C(NO)c1ccc(CN2CCCSc3ccccc32)cc1
Kp [7]: 2.3

Structure (SMILES): CN1CCC2c3ccccc3N(Cc3ccc(C(=O)NO)cc3)C2C1 (centres undefined)
IC50 [8]: 15 nM
Kp [7]: 0.18
